Test results published in patent publication US20040127489A1, “Novel antipsychotic combination therapies and compositions useful therein” (priority 2002, published 2004).

Legend:
[1] = tested on: α2 adrenergic receptor versus dopamine D2 receptor; conditions: literature; cited from earlier work
α2 adrenoreceptors = conditions: Martire et al. 1988; cited from earlier work
α2 autoreceptors = conditions: presynaptic; Martire et al. 1988; cited from earlier work
D2 receptor = D2 receptor (Homo sapiens, UniProt P14416); conditions: Merck Manual 17th Edition; cited from earlier work
Chain of D2 receptor (P14416 whole entry): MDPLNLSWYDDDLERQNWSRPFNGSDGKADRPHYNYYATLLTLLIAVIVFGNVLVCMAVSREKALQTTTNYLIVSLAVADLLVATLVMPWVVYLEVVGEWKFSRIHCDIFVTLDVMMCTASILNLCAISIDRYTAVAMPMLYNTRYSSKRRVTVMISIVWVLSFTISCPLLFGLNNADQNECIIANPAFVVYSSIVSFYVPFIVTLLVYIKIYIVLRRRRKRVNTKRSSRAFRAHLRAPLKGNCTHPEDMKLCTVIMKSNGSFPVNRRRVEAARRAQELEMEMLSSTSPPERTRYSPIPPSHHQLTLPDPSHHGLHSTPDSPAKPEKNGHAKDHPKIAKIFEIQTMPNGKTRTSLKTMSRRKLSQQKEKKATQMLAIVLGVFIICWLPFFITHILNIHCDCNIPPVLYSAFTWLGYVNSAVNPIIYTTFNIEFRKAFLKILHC

[2] = idazoxan 120 mg/day added to 1000 mg chlorpromazine equivalents of fluphenazine; Litman et al. 1996; cited from earlier work
Wistar rats = test: Conditioned avoidance response (CAR) behavior in rats; format: in vivo; conditions: rat CAR; adjunct treatment with idazoxan
Text: Food and water were available ad libitum.
Rats were trained and tested in a conventional, manually operated two-way active avoidance (shuttlebox) apparatus connected to a high resistance power supply. The box was divided into two compartments of equal size by a partition with one opening. Upon presentation of the 80 dB white noise conditioned stimulus (CS), the animals had 10 seconds to move from one compartment of the shuttlebox into the other. If the rat remained in the same compartment for more than 10 seconds, an intermittent electric shock (approx. 0.2 mA of 0.5-sec duration; intershock interval 2.5 sec), the unconditioned stimulus (UCS), was presented in the grid floor until an escape was performed. […] Intertrial intervals varied at random between 20 and 40 seconds. The following variables were recorded: avoidance (response to CS within 10 sec); escape (response to CS+UCS); escape failures (failure to respond); and intertrial crosses. The animals were trained for 3 consecutive days. Training sessions were run over 15 minutes. A final test session (7.5 minutes) was performed on the day immediately prior to the first experimental day, and only animals performing at the 100% correct level were assigned to the experiment. Experimental manipulations were always preceded by a pretest. […]

O=C1Cc2cc(CCN3CCN(c4nsc5ccccc45)CC3)c(Cl)cc2N1 [ziprasidone]
fold less affinity for the α2 adrenergic receptor than for the dopamine D2 receptor [1]: 100 fold

c1ccc2c(c1)OCC(C1=NCCN1)O2 (single isomer, unassigned; (+)) [(+)-idazoxan]
potency in inhibiting p-[3H]aminoclonidine binding relative to (−) idazoxan (α2 adrenoreceptors): 7-8 times
affinity towards the α2 autoreceptors relative to (−) idazoxan (α2 autoreceptors): 40 times

OCCN1CCN(CCCN2c3ccccc3Sc3ccc(C(F)(F)F)cc32)CC1 [fluophenazine, fluphenazine]
dose corresponding to 1000 mg chlorpromazine equivalents (D2 receptor): 20 mg

c1ccc2c(c1)OCC(C1=NCCN1)O2 (racemic) [idazoxan, ±-2-(1,4-benzodioxan-2-yl)-d-imidazoline]
clinical response [2]: adequate clinical responses

OCCOCCN1CCN(C2=Nc3ccccc3Sc3ccccc32)CC1 [quetiapine]
dose corresponding to 1000 mg chlorpromazine equivalents (D2 receptor): 900 mg

Cc1cc2c(s1)Nc1ccccc1N=C2N1CCN(C)CC1 [olanzapine]
reduction of the olanzapine dose required for an effective antipsychotic effect through adjunct idazoxan (Wistar rats): ~50%

O=C1NCCN1CCN1CCC(c2cn(-c3ccc(F)cc3)c3ccc(Cl)cc23)CC1 [sertindole]
dose corresponding to 1000 mg chlorpromazine equivalents (D2 receptor): 24 mg
